The source of these data is patent US9926340B2, “NAD analogs and methods of using said NAD analogs in determining ribosylation of proteins with PARP mutants” (The Board of Regents of the University of Texas System, priority 2015, dated 2018).

One assay concerns the target T1, PARP-1 (Homo sapiens, UniProt P09874).
T1 construct: His10; made in house; host or cells: E. coli BL21(DE3) (inferred)
The experiment in a line: PARP-1 enzyme kinetics assay (LC-HPLC of nicotinamide formation). The class given is biochemical. The note with it: 250 nM PARP-1, 10-500 μM analog; data not shown. Here is the method:
(§1) The enzyme kinetics of wild-type and analog-sensitive mutants of human PARP-1 were determined essentially as previously described (Jiang et al., 2010). Purified PARP-1 proteins were incubated for 5 minutes in PARP Enzyme Kinetics Buffer (50 mM Tris.HCl, pH 7.9, 4 mM MgCl2) containing 0.5 mg/mL sonicated salmon sperm DNA (Stratagene) at 25° C. with 10, 20, 30, 50, 100, 250, and 500 μM NAD^+ or 8-Bu(3-yne)T-NAD^+. The concentrations of the purified PARP-1 proteins were (1) 25 nM for PARP-1 with NAD^+, (2) 50 nM for PARP-1(L877A) with NAD^+, and […] 250 nM for PARP-1 and PARP-1(L877A) with 8-bu(3-yne)T-NAD^+. The reactions were brought to 450 mM perchloric acid (HClO4) to stop them, incubated for 5 minutes on ice, and then brought to […] potassium carbonate (K2CO3) to quench them. The quenched reactions were centrifuged at maximum speed in a microcentrifuge at 4° C., and the supernatant containing small molecules from the automodification reaction was collected.
(§2) The supernatants from the extracted ADP-ribosylation reactions were analyzed using a Shimadzu LCMS-QP8000α with a Phenomenex Kinetex C18 column (150×4.6 mm, 5 μm XB-C18 100A) monitored at 260 nm. […] Quantitative values for the small molecules and metabolites were obtained by comparison to a standard curve. […]

Another assay has as its target T2, PARP-1 (L877A) (Homo sapiens, UniProt P09874, L877A).
T2 construct: His10; made in house; host or cells: E. coli BL21(DE3) (inferred)
Described as above. The note with it: 250 nM PARP-1(L877A), 10-500 μM analog, 25° C., 5 minutes. In kind it is biochemical. Here is the method: as §1, §2

T1 sequence (P09874 whole entry): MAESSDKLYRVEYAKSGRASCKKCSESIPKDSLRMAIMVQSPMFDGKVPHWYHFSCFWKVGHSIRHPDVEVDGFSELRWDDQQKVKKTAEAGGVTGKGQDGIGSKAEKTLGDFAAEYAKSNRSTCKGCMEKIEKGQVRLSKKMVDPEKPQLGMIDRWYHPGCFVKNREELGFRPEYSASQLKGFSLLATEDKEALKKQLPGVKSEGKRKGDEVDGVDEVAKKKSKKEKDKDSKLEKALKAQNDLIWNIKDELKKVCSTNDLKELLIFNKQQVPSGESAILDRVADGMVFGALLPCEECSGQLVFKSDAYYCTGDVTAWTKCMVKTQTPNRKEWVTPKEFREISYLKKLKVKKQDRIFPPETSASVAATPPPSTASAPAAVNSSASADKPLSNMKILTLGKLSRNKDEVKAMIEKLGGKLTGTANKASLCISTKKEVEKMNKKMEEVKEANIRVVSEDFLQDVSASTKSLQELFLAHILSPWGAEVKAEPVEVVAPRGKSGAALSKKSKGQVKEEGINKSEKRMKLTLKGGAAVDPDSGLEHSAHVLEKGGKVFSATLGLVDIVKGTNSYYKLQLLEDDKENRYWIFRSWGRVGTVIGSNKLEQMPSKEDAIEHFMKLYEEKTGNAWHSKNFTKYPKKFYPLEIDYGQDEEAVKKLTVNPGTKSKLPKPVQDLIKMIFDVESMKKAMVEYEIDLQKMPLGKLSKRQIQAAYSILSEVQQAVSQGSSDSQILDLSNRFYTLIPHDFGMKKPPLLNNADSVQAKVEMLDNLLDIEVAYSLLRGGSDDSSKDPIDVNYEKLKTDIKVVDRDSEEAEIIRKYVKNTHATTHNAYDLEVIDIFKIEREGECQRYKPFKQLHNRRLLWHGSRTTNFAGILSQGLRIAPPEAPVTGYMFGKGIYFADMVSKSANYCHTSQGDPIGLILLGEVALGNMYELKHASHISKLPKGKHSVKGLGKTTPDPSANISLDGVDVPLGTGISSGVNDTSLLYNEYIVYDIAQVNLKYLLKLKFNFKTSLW
T2 sequence (P09874 whole entry L877A): as the sequence (P09874 whole entry) above, with L877A counted along it

For `C#CCCSc1nc2c(N)ncnc2n1[C@@H]1O[C@H](COP(=O)(O)OP(=O)(O)OC[C@H]2O[C@@H]([n+]3cccc(C(N)=O)c3)C(O)C2O)[C@H](O)C1O` (some centres unmarked) [8-Bu(3-yne)T-NAD^+], the “saturation of PARylation activity” value on PARP-1 is on record as “No saturation was detectable”. Moreover, the “enzyme kinetics compared to PARP-1 and NAD+” value at PARP-1 (L877A) was “nearing wild-type enzyme kinetics”.
